The source of these data is ChEMBL document CHEMBL1201862, “PubChem BioAssay data set” (2004).

The source made the active and inactive calls. A value given as a limit tells only on which side of the number the result lay.

Assay [1] can be described thus: nonselective inhibitors of cellular cAMP signaling, dose response, counter-screen for MC4R biased antagonist project, cell-based, TR-FRET cAMP detection (AID 602305).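 Note: U2OS cells stimulated with forskolin near its EC80 as the cAMP inducer; potency is for inhibition of forskolin-stimulated cAMP signaling.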 The class given is functional. (The purpose of a counterscreen is to sort out artefacts and off-target activity.)
Assay [2] deals with Melanocortin receptor 4 (Homo sapiens, UniProt P32245). Put plainly: MC4R antagonist potency on cAMP, dose response, cell-based, TR-FRET, biased antagonists (AID 602298).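 Note: antagonist potency against agonist-stimulated cAMP production.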 The class given is functional.
The target in assay [3] is T1, Hepatocyte nuclear factor 4-alpha (Homo sapiens, UniProt P41235).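 Note: biochemical luminescence-based dose-response counterscreen measuring inhibition of HNF4 dimerization, run alongside a screen for blockers of ABHD5–perilipin-5 interaction; split luciferase complementation of HNF4 fusion proteins in cell lysate measuring dimerization.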
T1 sequence (P41235 whole entry): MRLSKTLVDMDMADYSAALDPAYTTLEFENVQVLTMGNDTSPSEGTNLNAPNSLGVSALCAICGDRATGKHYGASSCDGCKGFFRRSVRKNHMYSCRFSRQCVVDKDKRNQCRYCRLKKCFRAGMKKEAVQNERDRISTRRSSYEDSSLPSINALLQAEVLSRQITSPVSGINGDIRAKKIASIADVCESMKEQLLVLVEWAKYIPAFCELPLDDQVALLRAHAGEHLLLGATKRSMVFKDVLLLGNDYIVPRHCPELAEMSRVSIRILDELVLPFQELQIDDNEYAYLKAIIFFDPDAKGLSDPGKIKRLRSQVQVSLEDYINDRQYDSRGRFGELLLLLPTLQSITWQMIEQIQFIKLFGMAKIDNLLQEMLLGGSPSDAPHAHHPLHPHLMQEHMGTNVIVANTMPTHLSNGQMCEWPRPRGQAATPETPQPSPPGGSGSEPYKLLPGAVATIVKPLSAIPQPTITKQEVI
The assay is classed as functional, cell-based.

In assay [4] the target is T2, Hexokinase HKDC1 (Homo sapiens, UniProt Q2TB90).
T2 sequence (Q2TB90 whole entry): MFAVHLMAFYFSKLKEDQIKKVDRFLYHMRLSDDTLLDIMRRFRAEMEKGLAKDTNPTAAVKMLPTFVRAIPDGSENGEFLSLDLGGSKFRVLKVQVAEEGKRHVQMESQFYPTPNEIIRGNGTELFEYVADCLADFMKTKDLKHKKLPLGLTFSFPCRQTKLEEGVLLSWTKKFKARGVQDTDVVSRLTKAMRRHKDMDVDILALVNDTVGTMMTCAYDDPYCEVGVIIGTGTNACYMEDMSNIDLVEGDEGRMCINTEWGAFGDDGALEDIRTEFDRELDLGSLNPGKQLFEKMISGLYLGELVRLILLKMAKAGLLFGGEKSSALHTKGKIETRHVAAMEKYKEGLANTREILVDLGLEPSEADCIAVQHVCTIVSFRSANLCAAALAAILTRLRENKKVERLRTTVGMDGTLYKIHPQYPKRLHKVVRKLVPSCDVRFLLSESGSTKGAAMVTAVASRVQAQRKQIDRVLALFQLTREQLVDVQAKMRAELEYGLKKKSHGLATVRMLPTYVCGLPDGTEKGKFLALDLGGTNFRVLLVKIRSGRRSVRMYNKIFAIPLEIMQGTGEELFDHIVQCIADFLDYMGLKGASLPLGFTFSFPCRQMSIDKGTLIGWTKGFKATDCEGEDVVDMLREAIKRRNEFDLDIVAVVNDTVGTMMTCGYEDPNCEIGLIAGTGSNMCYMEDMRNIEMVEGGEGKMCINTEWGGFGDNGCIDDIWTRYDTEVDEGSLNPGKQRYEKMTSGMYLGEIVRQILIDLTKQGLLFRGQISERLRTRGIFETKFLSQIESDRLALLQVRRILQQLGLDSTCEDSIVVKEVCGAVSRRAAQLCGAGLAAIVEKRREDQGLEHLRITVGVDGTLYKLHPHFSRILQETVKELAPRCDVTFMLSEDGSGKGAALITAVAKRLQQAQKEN
Description: HKDC1 hexokinase inhibitors, dose response, biochemical, W721R variant (AID 504729). The class given is functional.

Assay [5] addresses Paired box protein Pax-8 (Homo sapiens, UniProt Q06710). Description: inhibitors of PAX8-driven TPO luciferase reporter, dose response, RMG-I cells, cherry-pick (AID 687027).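 Note: luciferase reporter driven by Pax8 target thyroperoxidase promoter measured by SteadyGlo luminescence.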 The assay is classed as functional, cell-based. On the technique in general: Reporter assays use an easily measured gene product as a stand-in for the process of interest.
Assay [6] addresses ATP-dependent molecular chaperone HSP82 (Candida albicans (strain WO-1) (Yeast), UniProt C4YTQ8). Description: loss of DOC-induced GRE-beta-galactosidase reporter signal, dose response, Hsp90 inhibitor project, S. cerevisiae, luminescence (AID 2400).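 Note: beta-galactosidase luminescence from glucocorticoid response element reporter as proxy for Hsp90 function; inhibitor potency where signal loss means Hsp90 inhibition.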 The assay is classed as functional, cell-based.
Assay [7] deals with T3, DNA repair protein RAD52 homolog (Homo sapiens, UniProt P43351).
T3 sequence (P43351 whole entry): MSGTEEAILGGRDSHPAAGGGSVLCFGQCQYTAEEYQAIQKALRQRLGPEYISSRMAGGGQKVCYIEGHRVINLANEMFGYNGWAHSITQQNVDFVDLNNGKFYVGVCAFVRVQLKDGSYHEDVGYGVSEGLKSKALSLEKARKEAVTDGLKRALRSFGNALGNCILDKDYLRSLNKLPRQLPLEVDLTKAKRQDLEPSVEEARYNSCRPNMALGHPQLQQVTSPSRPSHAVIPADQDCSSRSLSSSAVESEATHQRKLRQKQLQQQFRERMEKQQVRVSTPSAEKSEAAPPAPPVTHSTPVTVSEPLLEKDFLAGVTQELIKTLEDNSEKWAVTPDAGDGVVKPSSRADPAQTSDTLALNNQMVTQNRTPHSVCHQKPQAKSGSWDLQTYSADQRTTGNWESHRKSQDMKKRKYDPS
The assay is classed as functional, biochemical.

Assay [8] deals with T4, Cytochrome P450 1A2 (Homo sapiens, UniProt P05177).
T4 sequence (P05177 whole entry): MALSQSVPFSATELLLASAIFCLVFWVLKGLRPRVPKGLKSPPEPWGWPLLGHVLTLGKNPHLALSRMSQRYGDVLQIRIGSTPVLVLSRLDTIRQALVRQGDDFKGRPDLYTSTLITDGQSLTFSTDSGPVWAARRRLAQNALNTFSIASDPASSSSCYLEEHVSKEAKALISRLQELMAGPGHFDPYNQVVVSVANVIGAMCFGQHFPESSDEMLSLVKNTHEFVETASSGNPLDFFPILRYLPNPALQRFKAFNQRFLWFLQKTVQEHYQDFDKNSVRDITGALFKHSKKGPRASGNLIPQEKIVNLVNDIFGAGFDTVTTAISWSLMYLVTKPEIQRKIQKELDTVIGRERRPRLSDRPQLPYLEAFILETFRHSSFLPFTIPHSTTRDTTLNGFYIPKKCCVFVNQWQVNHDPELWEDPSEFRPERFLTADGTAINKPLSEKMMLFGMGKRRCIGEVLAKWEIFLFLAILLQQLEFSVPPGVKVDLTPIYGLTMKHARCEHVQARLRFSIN

Assay [9] has as its target Cytochrome P450 2C9 (Homo sapiens, UniProt P11712).
Assay [10] deals with T5, CAAX prenyl protease 2 (Saccharomyces cerevisiae S288c, UniProt Q03530).
T5 sequence (Q03530 whole entry): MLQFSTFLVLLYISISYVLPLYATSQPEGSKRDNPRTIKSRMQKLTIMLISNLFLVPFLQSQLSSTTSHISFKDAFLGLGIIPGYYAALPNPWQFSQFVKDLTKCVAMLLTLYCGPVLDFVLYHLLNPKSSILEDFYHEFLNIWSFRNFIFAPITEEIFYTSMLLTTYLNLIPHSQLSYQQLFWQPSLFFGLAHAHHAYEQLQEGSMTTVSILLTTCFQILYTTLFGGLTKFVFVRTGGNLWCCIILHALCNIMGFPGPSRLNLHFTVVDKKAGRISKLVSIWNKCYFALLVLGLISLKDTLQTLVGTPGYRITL
The assay is classed as biochemical.

Assay [11] addresses T6, Ubiquitin-conjugating enzyme E2 N (Homo sapiens, UniProt P61088).
T6 sequence (P61088 whole entry): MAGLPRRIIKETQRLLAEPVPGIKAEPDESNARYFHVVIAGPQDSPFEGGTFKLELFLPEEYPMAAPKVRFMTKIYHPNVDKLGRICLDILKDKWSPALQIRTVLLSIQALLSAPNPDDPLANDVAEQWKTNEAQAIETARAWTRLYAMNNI
The assay is classed as functional.

Assay [12] addresses T7, Bcl-2-related protein A1 (Mus musculus, UniProt Q07440).
T7 sequence (Q07440 whole entry): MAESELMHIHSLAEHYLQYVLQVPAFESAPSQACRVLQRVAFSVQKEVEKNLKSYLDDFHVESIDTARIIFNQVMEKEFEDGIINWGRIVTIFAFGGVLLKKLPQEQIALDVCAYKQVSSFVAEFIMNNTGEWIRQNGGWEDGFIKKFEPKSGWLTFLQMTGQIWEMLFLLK
The assay is classed as functional.

In assay [13] the target is T6, Ubiquitin-conjugating enzyme E2 N. The class given is functional. This is another data set of the same source.
For assay [14], the target named is T8, Apoptotic protease-activating factor 1 (Homo sapiens, UniProt O14727).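 Note: caspase-3 cleavage of fluorogenic Rh110 DEVD substrate downstream of apoptosome activation.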
T8 sequence (O14727 whole entry): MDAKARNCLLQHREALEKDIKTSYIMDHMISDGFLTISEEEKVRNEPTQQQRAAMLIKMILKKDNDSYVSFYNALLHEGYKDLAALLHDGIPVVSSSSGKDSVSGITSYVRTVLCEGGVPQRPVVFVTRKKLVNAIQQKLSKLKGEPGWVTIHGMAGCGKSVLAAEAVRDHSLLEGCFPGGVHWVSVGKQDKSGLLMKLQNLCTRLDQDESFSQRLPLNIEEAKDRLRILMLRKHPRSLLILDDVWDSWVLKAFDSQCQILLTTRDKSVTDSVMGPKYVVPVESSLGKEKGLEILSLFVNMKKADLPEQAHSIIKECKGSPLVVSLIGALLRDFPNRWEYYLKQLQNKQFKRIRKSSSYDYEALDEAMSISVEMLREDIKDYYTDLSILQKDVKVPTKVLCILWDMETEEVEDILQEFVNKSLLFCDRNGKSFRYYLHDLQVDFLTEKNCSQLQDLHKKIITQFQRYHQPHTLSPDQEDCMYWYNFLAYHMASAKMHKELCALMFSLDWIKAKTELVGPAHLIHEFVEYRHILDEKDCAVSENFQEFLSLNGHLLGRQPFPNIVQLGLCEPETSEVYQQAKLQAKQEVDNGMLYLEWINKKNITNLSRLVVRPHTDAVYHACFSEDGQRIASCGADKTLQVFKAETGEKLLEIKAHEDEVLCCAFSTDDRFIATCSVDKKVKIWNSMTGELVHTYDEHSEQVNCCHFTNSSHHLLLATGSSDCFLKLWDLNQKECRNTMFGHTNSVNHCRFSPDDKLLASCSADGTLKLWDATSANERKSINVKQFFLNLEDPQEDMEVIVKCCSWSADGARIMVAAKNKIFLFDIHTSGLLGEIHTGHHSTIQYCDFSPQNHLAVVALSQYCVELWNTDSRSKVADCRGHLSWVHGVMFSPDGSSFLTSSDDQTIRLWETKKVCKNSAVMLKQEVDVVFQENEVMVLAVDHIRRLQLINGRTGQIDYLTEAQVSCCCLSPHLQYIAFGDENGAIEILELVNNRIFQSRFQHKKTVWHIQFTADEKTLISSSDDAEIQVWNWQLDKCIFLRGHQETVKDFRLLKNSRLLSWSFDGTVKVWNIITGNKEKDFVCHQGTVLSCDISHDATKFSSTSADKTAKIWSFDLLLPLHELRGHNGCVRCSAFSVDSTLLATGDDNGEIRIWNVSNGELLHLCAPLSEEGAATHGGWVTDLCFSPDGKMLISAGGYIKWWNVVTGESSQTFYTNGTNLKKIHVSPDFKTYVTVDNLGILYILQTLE
Description: SAR analysis of small molecule Activators of Apaf-1 in a Fluorescent assay. The assay is classed as functional. Conditions: read-out: EC50_Mean.

Chain of Melanocortin receptor 4 (P32245 whole entry, the tested form may be a part): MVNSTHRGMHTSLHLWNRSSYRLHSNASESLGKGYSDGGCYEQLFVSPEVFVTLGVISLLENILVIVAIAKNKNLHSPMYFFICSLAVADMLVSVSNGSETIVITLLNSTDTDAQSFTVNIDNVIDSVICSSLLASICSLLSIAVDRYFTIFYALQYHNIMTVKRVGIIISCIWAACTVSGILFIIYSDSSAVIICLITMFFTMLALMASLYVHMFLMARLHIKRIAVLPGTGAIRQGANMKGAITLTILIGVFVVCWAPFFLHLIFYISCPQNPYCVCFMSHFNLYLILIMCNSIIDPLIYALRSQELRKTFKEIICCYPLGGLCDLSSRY
Chain of ATP-dependent molecular chaperone HSP82 (C4YTQ8 whole entry): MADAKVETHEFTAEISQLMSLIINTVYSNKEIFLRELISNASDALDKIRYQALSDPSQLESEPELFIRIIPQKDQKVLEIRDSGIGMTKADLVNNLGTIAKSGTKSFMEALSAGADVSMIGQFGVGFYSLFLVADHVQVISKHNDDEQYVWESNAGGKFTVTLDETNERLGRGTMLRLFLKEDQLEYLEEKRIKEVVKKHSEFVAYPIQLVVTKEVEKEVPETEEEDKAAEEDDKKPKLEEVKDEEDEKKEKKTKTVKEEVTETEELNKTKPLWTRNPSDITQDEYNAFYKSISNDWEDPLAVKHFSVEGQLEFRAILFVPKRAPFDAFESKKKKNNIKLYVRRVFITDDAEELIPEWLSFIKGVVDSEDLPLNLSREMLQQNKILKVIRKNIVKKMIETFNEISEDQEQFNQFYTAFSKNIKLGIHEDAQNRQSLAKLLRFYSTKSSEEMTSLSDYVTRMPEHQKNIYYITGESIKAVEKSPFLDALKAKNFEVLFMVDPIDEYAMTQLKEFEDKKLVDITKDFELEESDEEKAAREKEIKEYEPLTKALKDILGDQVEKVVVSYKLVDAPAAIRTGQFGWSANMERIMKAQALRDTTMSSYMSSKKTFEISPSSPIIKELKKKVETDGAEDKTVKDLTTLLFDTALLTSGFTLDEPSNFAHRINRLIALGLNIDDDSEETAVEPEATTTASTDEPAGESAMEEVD
Chain of Cytochrome P450 2C9 (P11712 whole entry): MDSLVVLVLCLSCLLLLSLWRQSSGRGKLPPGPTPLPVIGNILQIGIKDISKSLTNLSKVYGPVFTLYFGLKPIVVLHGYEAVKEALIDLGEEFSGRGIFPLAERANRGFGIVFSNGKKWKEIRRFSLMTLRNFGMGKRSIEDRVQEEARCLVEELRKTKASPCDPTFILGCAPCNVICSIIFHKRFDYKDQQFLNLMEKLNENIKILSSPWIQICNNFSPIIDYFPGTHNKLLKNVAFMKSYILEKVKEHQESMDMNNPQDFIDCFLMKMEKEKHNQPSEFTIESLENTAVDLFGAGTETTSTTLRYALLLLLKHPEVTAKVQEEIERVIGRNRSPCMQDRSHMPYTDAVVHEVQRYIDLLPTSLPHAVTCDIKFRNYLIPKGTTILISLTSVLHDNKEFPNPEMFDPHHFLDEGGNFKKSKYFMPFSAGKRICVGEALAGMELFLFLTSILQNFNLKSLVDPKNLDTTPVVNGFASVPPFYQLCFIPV
Chain of Paired box protein Pax-8 (Q06710 whole entry): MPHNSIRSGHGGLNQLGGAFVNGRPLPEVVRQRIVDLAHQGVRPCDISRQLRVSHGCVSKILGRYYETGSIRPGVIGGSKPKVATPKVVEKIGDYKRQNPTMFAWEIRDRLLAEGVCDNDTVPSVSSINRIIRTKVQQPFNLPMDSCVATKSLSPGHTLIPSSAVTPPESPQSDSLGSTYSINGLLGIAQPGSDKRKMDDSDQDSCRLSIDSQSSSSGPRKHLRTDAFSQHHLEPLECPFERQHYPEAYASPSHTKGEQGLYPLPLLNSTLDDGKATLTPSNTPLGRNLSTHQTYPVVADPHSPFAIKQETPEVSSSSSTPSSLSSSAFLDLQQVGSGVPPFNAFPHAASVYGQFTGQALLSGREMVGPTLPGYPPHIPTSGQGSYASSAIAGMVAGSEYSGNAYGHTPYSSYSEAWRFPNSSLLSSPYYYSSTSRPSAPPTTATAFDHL

For the compound `CCc1cc2ccc(OC)cc2nc1SCC(=O)N1CCN(C(=O)c2ccco2)CC1`, the IC50 in assay [1] and in [2] was > 64.6 µM (inactive) throughout.

As for `[H]/N=C(\N/C(=N/[H])NCCCCCCNC(=N)NC(=N)Nc1ccc(Cl)cc1)Nc1ccc(Cl)cc1` [CHLORHEXIDINE], the IC50 (commonly the point on the concentration scale where inhibition reaches its midpoint) in assay [3] was 23.5 µM (inactive); in assay [4] it was 8.99 µM (active); in assay [2] it was 2 µM (active); in [11], 2.2 µM (active); in assay [12], > 20 µM (inactive); in assay [13] it was 3.01 µM (active). Further, the AC50 (as a rule, the concentration giving half of the maximal activity seen) is 5.69 µM (active) in assay [5]; 1.7 µM (active) in [7]; 15.8 µM (inconclusive) in [8]; 15.8 µM (inconclusive) in assay [9]; 5.69 µM (active) in [10]. In [6], the EC50 is > 150 µM (inactive).

As to `Cc1cccc(C)c1N1C(=O)CC2(CC(c3ccc4c(c3)OCCO4)=NO2)C1=O` (stereo not given), the EC50 in [14] was > 100 µM (inactive).
